# Measurements as given in ChEMBL document CHEMBL2034824, “Pyridyl-2,5-diketopiperazines as potent, selective, and orally bioavailable oxytocin antagonists: synthesis, pharmacokinetics, and in vivo potency” (J Med Chem, 2012).
# Columns and labels:
# Liver microsomes [1] = experiment: Intrinsic clearance in human liver microsomes; assay type: ADME, Microsome
# [2] = AUC in rat at 5 mg/kg, po; assay type: ADME, organism-based; parameters: dose 5 mg/kg, route oral; conditions: plasma
# [3] = Clearance in rat at 5 mg/kg; assay type: ADME, organism-based; parameters: dose 5 mg/kg; conditions: in vivo
# [4] = Intrinsic clearance in cynomolgus monkey liver microsomes; assay type: ADME, Macaca fascicularis, Microsome
# Oxytocin receptor = molecular target: T1, Oxytocin receptor (Homo sapiens, UniProt P30559); experiment: Displacement of [3H]oxytocin from human oxytocin receptor
# T1 sequence (P30559 whole entry): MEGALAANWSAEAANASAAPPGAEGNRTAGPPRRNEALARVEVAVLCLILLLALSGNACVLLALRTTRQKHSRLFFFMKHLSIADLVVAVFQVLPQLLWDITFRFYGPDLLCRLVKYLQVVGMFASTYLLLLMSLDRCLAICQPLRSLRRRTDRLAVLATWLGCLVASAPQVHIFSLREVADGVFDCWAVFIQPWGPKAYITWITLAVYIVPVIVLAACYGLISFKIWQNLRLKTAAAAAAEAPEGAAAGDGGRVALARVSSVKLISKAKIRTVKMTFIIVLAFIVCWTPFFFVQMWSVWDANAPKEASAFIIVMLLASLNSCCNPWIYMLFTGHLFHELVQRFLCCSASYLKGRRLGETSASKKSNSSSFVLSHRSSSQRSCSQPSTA
# Liver microsomes [5] = experiment: Intrinsic clearance in rat liver microsomes; assay type: ADME, Microsome
# [6] = Oral bioavailability in rat at 5 mg/kg; assay type: ADME, organism-based; conditions: in vivo
# Liver = experiment: Intrinsic clearance in dog liver microsomes; assay type: ADME, Canis lupus familiaris, Microsome
# [7] = Oral bioavailability in dog at 0.6 mg/kg; assay type: ADME, organism-based, Canis lupus familiaris; conditions: in vivo
# serum albumin [8] = molecular target: serum albumin (Homo sapiens, UniProt P02768); experiment: Binding affinity to human serum albumin; assay type: ADME; conditions: read-out: PB (converted)
# Chain of serum albumin (Homo sapiens, UniProt P02768) (P02768 whole entry): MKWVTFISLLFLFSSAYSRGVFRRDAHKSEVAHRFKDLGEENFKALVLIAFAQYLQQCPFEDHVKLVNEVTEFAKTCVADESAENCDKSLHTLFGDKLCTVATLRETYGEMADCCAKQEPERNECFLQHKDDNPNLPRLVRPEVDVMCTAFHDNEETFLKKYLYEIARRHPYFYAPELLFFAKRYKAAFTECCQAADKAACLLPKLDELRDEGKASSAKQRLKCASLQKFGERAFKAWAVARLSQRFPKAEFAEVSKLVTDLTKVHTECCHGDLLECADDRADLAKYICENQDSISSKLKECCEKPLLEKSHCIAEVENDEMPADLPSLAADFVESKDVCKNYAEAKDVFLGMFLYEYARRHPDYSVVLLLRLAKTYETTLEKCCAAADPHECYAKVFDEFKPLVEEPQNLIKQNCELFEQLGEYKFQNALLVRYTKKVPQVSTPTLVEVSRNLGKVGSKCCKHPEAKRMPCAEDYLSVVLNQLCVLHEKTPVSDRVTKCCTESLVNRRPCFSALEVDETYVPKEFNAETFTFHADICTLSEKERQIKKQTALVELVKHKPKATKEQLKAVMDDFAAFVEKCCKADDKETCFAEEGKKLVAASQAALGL
# serum albumin [9] = molecular target: serum albumin (Rattus norvegicus, UniProt P02770); experiment: Binding affinity to rat serum albumin; assay type: ADME; conditions: read-out: PB (converted)
# Chain of serum albumin (Rattus norvegicus, UniProt P02770) (P02770 whole entry): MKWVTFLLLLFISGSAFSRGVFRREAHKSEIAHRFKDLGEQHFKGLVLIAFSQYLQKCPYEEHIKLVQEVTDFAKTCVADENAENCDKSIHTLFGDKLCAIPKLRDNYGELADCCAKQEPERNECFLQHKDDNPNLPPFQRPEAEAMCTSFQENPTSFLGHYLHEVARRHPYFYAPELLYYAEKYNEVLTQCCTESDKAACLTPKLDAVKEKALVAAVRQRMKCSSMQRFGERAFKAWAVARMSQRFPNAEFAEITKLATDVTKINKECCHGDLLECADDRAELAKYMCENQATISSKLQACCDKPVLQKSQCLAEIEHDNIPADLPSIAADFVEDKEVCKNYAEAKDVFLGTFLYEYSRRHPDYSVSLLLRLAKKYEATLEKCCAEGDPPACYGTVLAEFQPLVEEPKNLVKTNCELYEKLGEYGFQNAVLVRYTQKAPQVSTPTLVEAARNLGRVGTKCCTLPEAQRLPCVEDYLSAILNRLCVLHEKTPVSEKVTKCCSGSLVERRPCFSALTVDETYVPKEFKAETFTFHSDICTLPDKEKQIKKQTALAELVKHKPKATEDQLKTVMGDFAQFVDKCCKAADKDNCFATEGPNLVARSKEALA
# [10] = Aqueous solubility of the compound by HPLC analysis; assay type: physicochemical
# [11] = Clearance in dog at 0.6 mg/kg; assay type: ADME, organism-based, Canis lupus familiaris; parameters: dose 0.6 mg/kg; conditions: in vivo
# [12] = AUC in dog at 0.6 mg/kg, po; assay type: ADME, organism-based, Canis lupus familiaris; parameters: dose 0.6 mg/kg, route oral; conditions: plasma
# [13] = Lipophilicity, log D of the compound by HPLC analysis; assay type: physicochemical
CLH (Liver microsomes [1]),AUC [2],clearance [3],CLH [4],Ki (Oxytocin receptor),CLH (Liver microsomes [5]),bioavailability [6],CLH (Liver),bioavailability [7],fraction unbound (serum albumin [8]),fraction unbound (serum albumin [9]),solubility [10],clearance [11],AUC [12],logD [13],SMILES
12 mL/min/g,1380 ng·h/mL,23 mL/min/kg,18 mL/min/g,0.0251 nM,1 mL/min/g,55%,5 mL/min/g,,,,,,,,CCC(CC)[C@@H]1C(=O)N[C@H](C2Cc3ccccc3C2)C(=O)N1[C@@H](C(=O)N1CCOCC1)c1ccc(C)nc1
,2230 ng·h/mL,23 mL/min/kg,,0.398 nM,,62%,,13%,0.08,0.14,216 µg/mL,8 mL/min/kg,158 ng·h/mL,2.7,COc1ccc([C@H](C(=O)N(C)C)N2C(=O)[C@@H](C3Cc4ccccc4C3)NC(=O)[C@H]2CC(C)C)cn1
,811 ng·h/mL,,,0.398 nM,,,,10%,0.33,0.38,> 253 µg/mL,17 mL/min/kg,53 ng·h/mL,2.1,Cc1ccc([C@H](C(=O)N2CCOCC2)N2C(=O)[C@@H](C3Cc4ccccc4C3)NC(=O)[C@H]2CC(C)C)cn1
5 mL/min/g,1730 ng·h/mL,25 mL/min/kg,6 mL/min/g,0.398 nM,1 mL/min/g,51%,5 mL/min/g,13%,,,,22 mL/min/kg,58 ng·h/mL,,CC[C@H](C)[C@@H]1C(=O)N[C@H](C2Cc3ccccc3C2)C(=O)N1[C@@H](C(=O)NC)c1ccc(C)nc1C
,,,,5.01 nM,,,,,,,230 µg/mL,,,,Cc1ccc([C@H](C(=O)N(C)C)N2C(=O)[C@@H](C3Cc4ccccc4C3)NC(=O)[C@H]2CC2CC2)cn1
,135 ng·h/mL,,,0.251 nM,,,,,0.26,0.18,233 µg/mL,,,2.6,CC(C)C[C@@H]1C(=O)N[C@H](C2Cc3ccccc3C2)C(=O)N1[C@@H](C(=O)N(C)C)c1ccc(N(C)C)nc1
1 mL/min/g,1110 ng·h/mL,,16 mL/min/g,0.0501 nM,1 mL/min/g,,4 mL/min/g,,,,,,,,CC[C@H](C)[C@@H]1C(=O)N[C@H](C2Cc3ccccc3C2)C(=O)N1[C@@H](C(=O)N1CCOCC1)c1cnc(C)cc1C
4 mL/min/g,770 ng·h/mL,20 mL/min/kg,21 mL/min/g,0.0794 nM,1 mL/min/g,18%,9 mL/min/g,5%,,,213 µg/mL,24 mL/min/kg,21 ng·h/mL,,Cc1ccc([C@H](C(=O)N2CCOCC2)N2C(=O)[C@@H](C3Cc4ccccc4C3)NC(=O)[C@H]2CC(C)(C)C)cn1
18 mL/min/g,,,29 mL/min/g,0.0316 nM,3 mL/min/g,,1 mL/min/g,,,,,,,,CCC(CC)[C@@H]1C(=O)N[C@H](C2Cc3ccccc3C2)C(=O)N1[C@@H](C(=O)N(C)C)c1ccc(C)nc1C
9 mL/min/g,2680 ng·h/mL,,32 mL/min/g,0.0398 nM,1 mL/min/g,,1 mL/min/g,17%,,,,12 mL/min/kg,140 ng·h/mL,,CC[C@H](C)[C@@H]1C(=O)N[C@H](C2Cc3ccccc3C2)C(=O)N1[C@@H](C(=O)N(C)C)c1cnc(C)cc1C
,,,,5.01 nM,,,,,,,> 258 µg/mL,,,,Cc1ccc([C@H](C(=O)N2CCOCC2)N2C(=O)[C@@H](C3Cc4ccccc4C3)NC(=O)[C@H]2CC2CC2)cn1
,1240 ng·h/mL,,31 mL/min/g,0.0501 nM,2 mL/min/g,,,,,,,,,,CCC(CC)[C@@H]1C(=O)N[C@H](C2Cc3ccccc3C2)C(=O)N1[C@@H](C(=O)NC)c1ccc(C)nc1C
7 mL/min/g,407 ng·h/mL,23 mL/min/kg,20 mL/min/g,0.0631 nM,1 mL/min/g,11%,4 mL/min/g,,,,,,,,CC[C@H](C)[C@@H]1C(=O)N[C@H](C2Cc3ccccc3C2)C(=O)N1[C@@H](C(=O)NC)c1cnc(C)cc1C
,2130 ng·h/mL,35 mL/min/kg,,0.251 nM,,88%,,,0.24,0.22,249 µg/mL,,,2.7,COc1ccc([C@H](C(=O)N2CCOCC2)N2C(=O)[C@@H](C3Cc4ccccc4C3)NC(=O)[C@H]2CC(C)C)cn1
1 mL/min/g,24 ng·h/mL,28 mL/min/kg,1 mL/min/g,1 nM,1 mL/min/g,< 1%,,11%,,,> 242 µg/mL,14 mL/min/kg,73 ng·h/mL,,CC[C@H](C)[C@@H]1C(=O)N[C@H](C2Cc3ccccc3C2)C(=O)N1[C@@H](C(=O)N(C)C)c1ccc(C)[n+]([O-])c1
,,,,3.16 nM,,,,,0.39,0.63,> 240 µg/mL,,,1.3,CC(C)C[C@@H]1C(=O)N[C@H](C2Cc3ccccc3C2)C(=O)N1[C@@H](C(=O)N(C)C)c1ccc(=O)[nH]c1
5 mL/min/g,1370 ng·h/mL,,13 mL/min/g,0.794 nM,1 mL/min/g,,2 mL/min/g,,,,,,,,CC[C@H](C)[C@@H]1C(=O)N[C@H](C2Cc3ccccc3C2)C(=O)N1[C@@H](C(=O)N(C)C)c1cc(C)cnc1C
3 mL/min/g,3360 ng·h/mL,23 mL/min/kg,11 mL/min/g,1 nM,1 mL/min/g,82%,1 mL/min/g,,,,> 237 µg/mL,,,,CC[C@@H](C)[C@@H]1C(=O)N[C@H](C2Cc3ccccc3C2)C(=O)N1[C@@H](C(=O)N(C)C)c1ccc(C)nc1
,80 ng·h/mL,,,0.316 nM,,,,,0.3,0.29,235 µg/mL,,,2.9,CC(C)C[C@@H]1C(=O)N[C@H](C2Cc3ccccc3C2)C(=O)N1[C@@H](C(=O)N1CCOCC1)c1ccc(N(C)C)nc1
,,,,0.794 nM,,,,,,,,,,,CC[C@H](C)[C@@H]1C(=O)N[C@H](C2Cc3ccccc3C2)C(=O)N1[C@@H](C(=O)N1CCOCC1)c1cc(C)cnc1C
3 mL/min/g,1450 ng·h/mL,27 mL/min/kg,6 mL/min/g,0.158 nM,1 mL/min/g,54%,2 mL/min/g,14%,,,> 268 µg/mL,23 mL/min/kg,55 ng·h/mL,,CC[C@H](C)[C@@H]1C(=O)N[C@H](C2Cc3ccccc3C2)C(=O)N1[C@@H](C(=O)N1CCOCC1)c1ccc(C)nc1
3 mL/min/g,,,5 mL/min/g,1.26 nM,1 mL/min/g,,3 mL/min/g,,,,,,,,CC[C@H](C)[C@@H]1C(=O)N[C@H](C2Cc3ccccc3C2)C(=O)N1[C@@H](C(=O)NC)c1cc(C)cnc1C
4 mL/min/g,1590 ng·h/mL,39 mL/min/kg,8 mL/min/g,0.501 nM,1 mL/min/g,44%,2 mL/min/g,31%,,,> 280 µg/mL,20 mL/min/kg,138 ng·h/mL,,CC[C@@H](C)[C@@H]1C(=O)N[C@H](C2Cc3ccccc3C2)C(=O)N1[C@@H](C(=O)N1CCOCC1)c1ccc(C)nc1
6 mL/min/g,618 ng·h/mL,,8 mL/min/g,0.0631 nM,3 mL/min/g,,1 mL/min/g,,,,> 242 µg/mL,,,,Cc1ccc([C@H](C(=O)N(C)C)N2C(=O)[C@@H](C3Cc4ccccc4C3)NC(=O)[C@H]2CC(C)(C)C)cn1
2 mL/min/g,2270 ng·h/mL,19 mL/min/kg,9 mL/min/g,0.2 nM,1 mL/min/g,62%,1 mL/min/g,39%,,,> 254 µg/mL,10 mL/min/kg,347 ng·h/mL,,CC[C@H](C)[C@@H]1C(=O)N[C@H](C2Cc3ccccc3C2)C(=O)N1[C@@H](C(=O)N(C)C)c1ccc(C)nc1
11 mL/min/g,1810 ng·h/mL,20 mL/min/kg,12 mL/min/g,0.0501 nM,2 mL/min/g,36%,1 mL/min/g,47%,,,,19 mL/min/kg,255 ng·h/mL,,CCC(CC)[C@@H]1C(=O)N[C@H](C2Cc3ccccc3C2)C(=O)N1[C@@H](C(=O)N(C)C)c1ccc(C)nc1
,920 ng·h/mL,33 mL/min/kg,,0.501 nM,,36%,,,0.24,0.3,241 µg/mL,,,2.3,Cc1ccc([C@H](C(=O)N2CCCC2)N2C(=O)[C@@H](C3Cc4ccccc4C3)NC(=O)[C@H]2CC(C)C)cn1
